Experimental data published in patent US20080227638A1, “Use of abscisic acid to enhance growth control” (priority 2007, published 2008).

Legend:
Format in all cases: in vivo
[1] = test system: Kentucky bluegrass cv Midnight; experiment: Kentucky bluegrass cv Midnight height, ABA and trinexapac-ethyl (Example 6); conditions: 7 days after treatment
Procedure: (§1) Greenhouse studies were conducted at the Research Farm of Valent BioSciences Corporation (Long Grove, Ill.). Grasses were grown in pots (18 cm in diameter and 18 cm in height) filled with Promix BX (available from Premier Horticulture Inc. Quakertown, Pa.). Grass was irrigated daily by an overhead irrigation system. The irrigation system was set up with multiple Tornado Mist Spray Heads (10 GPH at 40 PSI-Wetted diameter, NDS/Raindrip, Woodland Hills, Calif.). Spray heads were 1-meter apart from each other and 75 cm above grass canopy. Grass was cut with a scissor at 2.5 cm height and fertilizer (1 g/L all purpose fertilizer 20-20-20, available from The Scotts Company, Marysville, Ohio) was applied once per week.
Chemical solutions were prepared with distilled water. Tween 20 (0.05% v/v) was used as an, adjuvant. […]
When treated with paclobutrazol or uniconazole-P, turfgrass received irrigation within 24 hours after application to flush chemicals to the root zone. […] Turfgrass quality, turfgrass height or clip fresh weight was measured on assigned dates. […] Turfgrass height was measured as the distance between canopy surface and soil. […]
All experiments were randomized complete block experimental design. Data were analyzed by analysis of variance. […]

Tall fescue, cv K-31 = experiment: Tall fescue cv K-31 height, ABA and trinexapac-ethyl (Example 6)
Procedure: as §1
(§2) Chemical solutions were prepared with distilled water. Tween 20 (0.05% v/v) was used as an, adjuvant. Both trinexapac-ethyl (commercial product Primo Maxx, 11.3% active ingredient) and paclobutrazol (commercial product Trimmit 2SC, 22.3% active ingredient) were purchased from Syngenta Crop Protection Inc. (Greensboro, N.C.). Uniconazole-P (commercial product Sumagic, 0.55% active ingredient) was obtained from Valent U.S.A. Corporation (Walnut Creek, Calif.).
(§3) When treated with paclobutrazol or uniconazole-P, turfgrass received irrigation within 24 hours after application to flush chemicals to the root zone. After treatment, turfgrasses were arranged in a randomized complete block experimental design. Turfgrass quality, turfgrass height or clip fresh weight was measured on assigned dates. Turfgrass quality was visually rated on a 0-9 scale based on the color, uniformity and density of the grass with 0 as the worst and 9 as the best. Turfgrass height was measured as the distance between canopy surface and soil. Clips were collected from each plot; all plots were cut to a uniform height.
(§4) All experiments were randomized complete block experimental design. Data were analyzed by analysis of variance. Duncan's new multiple range tests at α=0.05 were used for mean separations.

Kentucky bluegrass [2] = experiment: Greenhouse Kentucky bluegrass height and quality, ABA and paclobutrazol (Example 2); conditions: 200 ppm ABA
Procedure: as §1, §2, §3, §4
Kentucky bluegrass sod (unknown variety) was purchased from Deak sod farms, Inc. (Union Grove, Wis.). Grass was grown in the greenhouse in pots (n=6 pots per treatment) for establishment before treatment. […] Turfgrass quality was evaluated at 7 days after treatment, and turfgrass height was measured at 7 and 28 days after treatment. Tween 20 (0.05% w/v) was included as an adjuvant. The turfgrass canopy was cut every 7 days during the experimental period.

Kentucky bluegrass [3] = experiment: Greenhouse Kentucky bluegrass height, ABA and uniconazole-P (Example 3); conditions: 200 ppm ABA
Procedure: as §1, §2, §3, §4
Kentucky bluegrass sod (unknown variety) was purchased from Deak sod farms, Inc. (Union Grove, Wis.). Grass was grown in the greenhouse in pots (n=6 pots per treatment) for establishment before treatment. […] Tween 20 (0.05% w/v) was included as an adjuvant. The turfgrass was cut every 7 days.

creeping bentgrass = experiment: Golf course green creeping bentgrass height, clip weight and quality, ABA and uniconazole-P (Example 5); conditions: 200 ppm ABA
Procedure: Field studies were conducted at the nursery green or the practice green at Countryside golf course (Mundelein, Ill.). Both greens were sand based and growing Penncross creeping bentgrass. Grass was managed with typical Illinois golf course management practices.
as §2, §3, §4
Tween 20 (0.05% w/v) was included as an adjuvant.

Bermudagrass = Bermudagrass clip weight, ABA and uniconazole-P (Example 7); conditions: 200 ppm ABA; 7 days after treatment
Procedure: as §2, §3, §4

## CCOC(=O)C1CC(=O)C(=C(O)C2CC2)C(=O)C1 (stereo not drawn) [trinexapac-ethyl]
[1]; 80 ppm trinexapac-ethyl
  Turfgrass height: 7.6 cm
[1]; 160 ppm trinexapac-ethyl
  Turfgrass height: 6.7 cm
Tall fescue, cv K-31; 80 ppm trinexapac-ethyl, 7 days after treatment
  Turfgrass height: 11.8 cm
Tall fescue, cv K-31; 80 ppm trinexapac-ethyl, 21 days after treatment
  Turfgrass height: 19.8 cm
Tall fescue, cv K-31; 160 ppm trinexapac-ethyl, 7 days after treatment
  Turfgrass height: 9.7 cm
Tall fescue, cv K-31; 160 ppm trinexapac-ethyl, 21 days after treatment
  Turfgrass height: 20.1 cm

## S-abscisic acid [ABA]
Kentucky bluegrass [2]; 7 days after treatment
  Turfgrass height: 11.7 cm
Kentucky bluegrass [2]; 28 days after treatment
  Turfgrass height: 9.7 cm
Kentucky bluegrass [3]; 7 days after treatment
  Turfgrass height: 12.3 cm
Kentucky bluegrass [3]; 42 days after treatment
  Turfgrass height: 9.4 cm
Creeping bentgrass; 7 days after treatment
  Clip weight: 2.0 g
  Turfgrass height: 5.0 cm
Creeping bentgrass; 49 days after treatment
  Clip weight: 2.7 g
  Turfgrass height: 4.6 cm
Bermudagrass
  Clip weight: 1.8 g
